Key:
[1] = Body weight (tolerability and toxicity) in human HT1080 fibrosarcoma xenograft model; settings: 1 mg/kg of the cytotoxic agent component, IV on days 0 and 3
Method: (§1) Female athymic nude mice (8-10 weeks old) purchased from Charles River (Wilmington, 01887, MA) were used after 4-7 day of acclimatization period. […] Human fibrosarcoma tumor cells from ATCC (CCL-121™) were grown using standard cell culture techniques. Tumor cells (1×10^8 tumor cells/mL) were suspended in DPBS/Matrigel™ (1:1 vol) and implanted subcutaneously (50 μL tumor cell suspension/mouse) into the upper mammary fat pad or right flank of mice with individual identification number (ear tag). Four to seven days later when the average tumor volume was about 50-100 mm^3, mice were randomized into different experimental groups based on identical averaged (Mean±SEM) tumor volume and dosed with (i) vehicle and (ii) different doses of test compounds. For each involved tumor-bearing mouse, the tumor volume (mm^3) was measured using a caliper and calculated as follows: tumor volume=width^2×length/2. Test compounds were administered intravenously (tail vein) twice (two administrations 3 days apart) in conscious restrained tumor-bearing mice throughout the study. Individual tumor volume, body weight as well as clinical signs were recorded during the study. Each study was terminated on day 12 post-dosing initiation. […] For each experimental group and study day, the tumor volumes from all involved mice were averaged and expressed as Mean±SEM. […]

[2] = test system: HT1080 human fibrosarcoma subcutaneous tumor xenograft; assay: Human fibrosarcoma tumor xenograft therapeutic model, tumor growth; format: in vivo, athymic nude mice; settings: dosed at 0.6 to 3.0 mg/kg of cytotoxic payload component, intravenously twice 3 days apart, evaluated day 9
Method: as §1

[3] = test system: HT1080 fibrosarcoma cells; assay: Cancer cell viability assay using human HT1080 fibrosarcoma cells; format: cell-based; settings: four days incubation, reduction of viable cells, SDM as such
Method: Method: Plate cells one day prior to start of assay in 96 well black with clear bottom plates (Corning #3603), 2×10^4 cells per well in 100 μL of standard growth media (according to ATCC). Grow cells to 90% confluency.
Before start of assay rinse cells IX with DPBS. Add compounds in a 3-fold serial dilution in triplicate (range e.g. 8.1 μM-3.7 nM), 100 μL per well in standard growth media.
Incubate four days then assay cell viability as described below. Remove media and rinse IX with DPBS, then add 100 μL per well 10% Prestoblue Cell viability reagent (Thermo Fisher Scientific #A13261) in complete media. Return to incubator for two hours then read plate on SpectraMax M2e, bottom read excitation 555 emission 585 cut-off 570 which measures number of live cells. […] In most cases, SDMs were also tested in activated form by pre-treatment with protease that activates the compound. […] In Table 9 this is represented as ACT SDM-200.

Structure (SMILES) | Tolerability (FIG. 3B) [1] | Weight loss (body weight normalized to day 1, FIG. 3B) [1] [%] | Efficacy (percent tumor growth inhibition versus vehicle) [2] | EC50 [3] [nM]
[2H]C(=O)OCc1ccc(NC(=O)[C@H](CCCNC(N)=O)NC(=O)[C@@H](NC(=O)CCCCCN2C(=O)C=CC2=O)C(C)C)cc1 [SDM-155] | not tolerated | > 20 |  | 
[2H]CC(NC(=O)C(CCCNC(=N)N)NC(=O)[C@H](CCCNC(=N)N)NC(=O)[C@@H](CCCNC(=N)N)NC(=O)[C@H](CCCNC(=N)N)NC(=O)[C@@H](CCCNC(=N)N)NC(=O)[C@H](CCCNC(=N)N)NC(=O)[C@@H](CCCNC(=N)N)NC(=O)[C@H](CCCNC(=N)N)NC(=O)C(CO)NC(=O)[C@H](CCCNC(=N)N)NC(=O)[C@H](Cc1c[nH]c2ccccc12)NC(=O)C(CC(C)C)NC(=O)C(C)NC(=O)[C@H](CC(C)C)NC(=O)[C@@H]1CCCN1C(=O)[C@H](CCCNC(=N)N)NC(=O)COCCNC(=O)C(Cc1ccc(C(C)=O)cc1)NC(=O)[C@@H](CCC(=O)O)NC(=O)[C@@H](CCC(=O)O)NC(=O)[C@@H](CCC(=O)O)NC(=O)[C@@H](CCC(=O)O)NC(=O)[C@@H](CCC(=O)O)NC(=O)CCN1C(=O)C=CC1=O)C(N)=O (some centres unmarked) [SDM-173] |  |  | High (High: ≥80% inhibition) | 
CC[C@H](C)C([C@@H](CC(=O)N1CCCC1[C@H](OC)[C@@H](C)C(=O)N[C@@H](Cc1ccccc1)C(=O)O)OC)N(C)C(=O)[C@@H](NC(=O)[C@H](C(C)C)N(C)C(=O)CNC(=O)[C@H](CCCNC(N)=O)NC(=O)[C@@H](NC(=O)[C@H](Cc1ccc(/C(C)=N\OCCCCCC(=O)N[C@@H](CC(=O)O)C(=O)NC(CC2CCCCC2)C(=O)NC(Cc2ccccc2)C(=O)N[C@H](CO)C(=O)N[C@H](CCCNC(N)N)C(=O)N[C@@H](Cc2ccc(O)cc2)C(=O)N[C@@H](CC(C)C)C(=O)N[C@@H](Cc2c[nH]c3ccccc23)C(=O)N[C@@H](CO)C(N)=O)cc1)NC(=O)CCCCCN1C(=O)C=CC1=O)C(C)C)C(C)C (some centres unmarked) [SDM-185] |  |  | Medium (Medium: ≥29% inhibition to < 80% inhibition) | < 300

Reference: US20220347306A1, “SELECTIVE DELIVERY OF THERAPEUTIC AND IMAGING AGENTS” (priority 2018, published 2022)
